From patent US7244557B2, “Method of screening modulators of Nod1 signaling” (Regents of the University of Michigan, priority 2003, dated 2007)

Target: T1, NOD1 (Homo sapiens, UniProt Q9Y239)
T1 construct: expressed in transfected cells; host or cells: HEK293T
T1 sequence (Q9Y239 1-953): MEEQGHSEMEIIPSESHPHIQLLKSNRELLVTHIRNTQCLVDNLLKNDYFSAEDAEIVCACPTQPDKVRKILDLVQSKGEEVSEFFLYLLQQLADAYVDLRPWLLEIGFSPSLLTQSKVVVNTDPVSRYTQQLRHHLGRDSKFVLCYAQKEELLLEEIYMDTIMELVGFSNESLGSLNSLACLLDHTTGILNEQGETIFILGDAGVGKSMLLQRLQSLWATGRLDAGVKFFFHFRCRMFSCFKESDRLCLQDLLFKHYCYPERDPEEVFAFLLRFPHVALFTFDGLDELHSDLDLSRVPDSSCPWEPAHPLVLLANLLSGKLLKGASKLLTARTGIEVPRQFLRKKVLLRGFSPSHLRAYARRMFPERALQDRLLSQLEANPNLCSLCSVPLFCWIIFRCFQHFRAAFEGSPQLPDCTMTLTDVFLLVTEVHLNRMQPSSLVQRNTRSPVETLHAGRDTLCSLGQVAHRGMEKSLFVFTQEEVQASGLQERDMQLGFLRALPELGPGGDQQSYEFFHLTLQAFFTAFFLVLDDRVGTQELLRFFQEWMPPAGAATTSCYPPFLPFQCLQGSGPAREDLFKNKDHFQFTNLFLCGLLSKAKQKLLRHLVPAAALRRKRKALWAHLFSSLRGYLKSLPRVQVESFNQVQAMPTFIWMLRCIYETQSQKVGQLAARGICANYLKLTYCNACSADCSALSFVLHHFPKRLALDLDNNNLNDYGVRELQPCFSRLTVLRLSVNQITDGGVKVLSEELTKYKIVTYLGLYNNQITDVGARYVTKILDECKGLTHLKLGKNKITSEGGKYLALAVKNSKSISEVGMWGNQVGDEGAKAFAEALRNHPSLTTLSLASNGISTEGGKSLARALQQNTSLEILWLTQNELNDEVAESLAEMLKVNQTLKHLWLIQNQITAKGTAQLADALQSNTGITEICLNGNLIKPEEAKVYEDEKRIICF
Experiment: NF-κB-dependent luciferase reporter assay, HEK293T cells expressing NOD1
Assay type: cell-based
Source text: Reagents. LPS from S. typhimurium, intact and alkaline-detoxified LPS from E. coli O55:B5 as well as purified lipid A preparations of E. coli F583, MDP, DAP and dsRNA were obtained from Sigma-Aldrich (St. Louis, Mo.). PGN from S. aureus was from Fluka-Chemie (Buchs, Germany). Palmitoyl-Cys ((RS)-2,3-di(palmitoyloxy)-propyl)-Ala-Gly) (sBLP), was obtained from Bachem (Torrance, Calif.). The tetrameric form of the disaccharide dipeptide was described previously (Inohara et al., J. Biol. Chem. 278:5509 [2003]). iE-DAP and iQ-DAP, M3P and M4P were synthesized as described (Kitaura et al., J. Med. Chem. 25:335 [1982]) with small modification. Purification of PGN from B. subtilis 168 and C. flaccumfaciens with hydrolases, Cellosyl or recombinant AtlE (amidase domain) and the fractionation and purification of reduced B. subtilis PGN digested with Cellosyl were performed as previously described (Heilman et al., Mol. Microbiol. 24:1013 [1997]; Atrih et al., J. Bact. 181:3956 [1999]). Removal of proteins and reduction of LPS fraction. E. coli O55:B5 LPS (Sigma) was treated with proteinase K at 37° C. for 12 hr to digest contaminating proteins. To eliminate lipoproteins, LPS was subjected to modified phenol extraction with deoxycholate-containing phenol as described (Hirschfeld et al., J. Immunol. 165:618 [2000]). For reduction of carboxyl group in the LPS, the LPS was treated with 1-ethyl-3-(3-dimethylaminopropyl) carbodiimide and then reduced with NaBH4 as described (Taylor et al., Biochemistry 11:1383 [1972]). Preparation of E. coli extract. E. coli K-12 mutants were all based on the SØ864 genetic background (lacZ trp upp relA rpsL) (Neuhard and Thomassen, J. Bacteriol. 126:999). SØ874 carries a large chromosomal deletion removing the gene clusters for the biosynthesis of CA capsule and O-antigen. CLM5 is a derivative of SØ874 with a transposon insertion in the wecC gene that blocks the synthesis of ECA (Marolda et al., J. Bacteriol. 177:5539[1995]). FAM5 is a derivative of SØ874 carrying a deletion that eliminates the incorporation of heptose in the LPS core. Extracts were prepared from all of these E. coli K-12 strains and also from another E. coli K-12 strain, LCD27 YA21-6 (Obtained from Dr. Arisaka, Tokyo Institute of Technology). Bacteria were cultured overnight at 37° C. in Luria broth, killed by treatment with acetone followed by vacuum drying and finally resuspended in 10 mM HEPES. The extract was treated with 1M NaOH at 55° C. for 12 hr and neutralized with 1M HEPES (pH 7.4). The soluble fraction after centrifugation and filtration with 0.22 μm filter was applied to SUPEROSE 12 gel filtration column chromatography. Partial purification of NOD1-stimulatory molecules from E. coli and composition analyses. The amino acid composition of E. coli O55:B5 LPS was determined using AccQ·Tag amino acid analysis system (Waters, Milford, Mass.) after hydrolysis at 110° C. for 24 hr. For carbohydrate analysis, E coli K-12 YA21-6 (Ref 26) cultured overnight at 37° C. in L-broth were washed with TBS twice and incubated with TBS containing 1 mglml DNase I, RNase I and lysozyme for 37° C. for 2 hr. Acetone was added to the extracts at 50% final concentration and the insoluble fractions were washed with an excess of 75% and 100% acetone. After vacuum drying, the acetone extract was solublized with 1 M NaOH and incubated at 60° C. for 24 hr. The pH was adjusted to pH 5.0 with acetic acid and the soluble fraction was passed through SUPEROSE gel filtration column. SUPEROSE fractions with NOD1-stimulatory activity were diluted with 10 mM Tris-HCl (pH 8.8) and subjected to UnoQ column chromatography. The fractions were eluted with a linear gradient of 0–300 mM NaCl. The positive fractions were dialyzed against water and dried under vacuum. The monosaccharide composition of the fractions after TFA/methanol degradation was determined as previously described (Forsberg et al., J. Biol. Chem. 273:2747[1998]). Transfection and NF-κB Activation Assay. […]

Substance | NOD1-dependent NF-κB activation (NOD1 stimulation)
Palmitoyl-Cys ((RS)-2,3-di(palmitoyloxy)-propyl)-Ala-Gly) [synthetic lipoprotein] | not NOD1
γ-D-Gln-DAP [iQ-DAP] | stimulated NOD1
MurNAc-L-Ala-γ-D-Gln [MDP] | Neither MDP nor tetrameric forms of disaccharide dipeptide (4 mer) stimulated NOD1
γ-D-glutamy-meso-diaminopimelic acid [iE-DAP] | stimulated NOD1
